Here are results for 17 molecules from ChEMBL document CHEMBL5113383, “Application of the All-Hydrocarbon Stapling Technique in the Design of Membrane-Active Peptides” (J Med Chem, 2022).

Positions of bridges follow the written chain, without caps; N, C: chain ends. Non-standard residues stand in square brackets, D forms with d. Residues, ends and D or L forms follow the SMILES beside them. *: point of attachment. X2 = C[C@@H]1O[C@H](*)[C@@H](O)[C@H](O)[C@@H]1O; X1 = O[C@H]1[C@H](O)[C@@H](*)OC[C@H]1O; R8 = C=CCCCCCC[C@@](C)(N)C(=O)O; R5 = C=CCCC[C@@](C)(N)C(=O)O; S5 = C=CCCC[C@](C)(N)C(=O)O; Nle = CCCC[C@H](N)C(=O)O; Orn = NCCC[C@H](N)C(=O)O

The nature of one series: Hemolytic activity in human erythrocytes incubated for 1 hr. Format: toxicity, cell-based, Erythrocyte.
Conditions: not given
Turning to `CCCC[C@@H]1NC(=O)[C@@](C)(NC(=O)[C@H](CCCCN)NC(=O)[C@@H]2CCCN2C(=O)[C@H](CC(C)C)NC(=O)[C@]2(C)CCC/C=C\CCC[C@](C)(NC(=O)[C@H](CO)NC(=O)[C@H](CC(C)C)NC(=O)[C@H](Cc3ccccc3)NC(=O)CN)C(=O)N[C@@H](CC(C)C)C(=O)N[C@@H](CCCN)C(=O)N[C@@H](CCCCN)C(=O)N2)CCC/C=C\CCC[C@@](C)(C(=O)N[C@@H](CCCCN)C(N)=O)NC(=O)[C@H](Cc2cnc[nH]2)NC(=O)[C@H](C)NC1=O` (H-GFLS[S5]L[Orn]K[S5]LPK[S5][Nle]AH[S5]K-NH2; staple (Z) 5-9, 13-17), the HC50 (usually the concentration giving 50% haemolysis) at 1 h came out at 13.9 µM. `CC[C@H](C)[C@H](NC(=O)CN)C(=O)N[C@@H](CCSC)C(=O)N[C@@H](CO[C@H]1OC[C@@H](O)[C@@H](O)[C@@H]1O)C(=O)N[C@@H](CO)C(=O)N[C@@H](CC(C)C)C(=O)N[C@@H](CCSC)C(=O)N[C@@H](CCCCN)C(=O)N[C@@H](CCCCN)C(=O)N[C@@H](CC(C)C)C(=O)N[C@@]1(C)CCC/C=C\CCC[C@@](C)(C(=O)N[C@@H](CCCCN)C(N)=O)NC(=O)[C@H]([C@@H](C)CC)NC(=O)[C@H](Cc2cnc[nH]2)NC(=O)[C@H](C)NC1=O` (H-GIMS(X1)SLMKKL[S5]AHI[S5]K-NH2; staple (Z) 11-15) registered an HC50 at 1 h above 400 µM.

Consider `CC[C@H](C)[C@H](NC(=O)[C@H](CCCCN)NC(=O)CNC(=O)[C@H](CC(C)C)NC(=O)[C@]1(C)CCC/C=C\CCC[C@](C)(NC(=O)[C@@H](N)C(C)C)C(=O)N[C@@H](Cc2c[nH]c3ccccc23)C(=O)N[C@@H](CCCCN)C(=O)N[C@@H](CCCCN)C(=O)N1)C(=O)N[C@H](C(=O)N[C@@H](CCCCN)C(=O)N[C@H](C(=O)N[C@H](C(=O)N[C@@H](CCCCN)C(N)=O)C(C)C)C(C)C)[C@@H](C)CC` (H-V[S5]WKK[S5]LGKIIKVVK-NH2; staple (Z) 2-6), for which the HC50 at 1 h came out at 30 µM.

Molecule `CCCC[C@@H]1NC(=O)[C@@](C)(NC(=O)[C@H](CCCCN)NC(=O)[C@@H]2CCCN2C(=O)[C@H](CC(C)C)NC(=O)[C@@H](NC(=O)[C@H](CCCCN)NC(=O)[C@H](CCCCN)NC(=O)[C@H](CC(C)C)NC(=O)[C@@H](NC(=O)[C@H](CO)NC(=O)[C@H](CC(C)C)NC(=O)[C@H](Cc2ccccc2)NC(=O)CN)[C@@H](C)CC)C(C)C)CCC/C=C\CCC[C@@](C)(C(=O)N[C@@H](CCCCN)C(N)=O)NC(=O)[C@H](Cc2cnc[nH]2)NC(=O)[C@H](C)NC1=O` (H-GFLSILKKVLPK[S5][Nle]AH[S5]K-NH2; staple (Z) 13-17) showed a 50% haemolytic concentration (HC50) at 1 h of 18.1 µM.

As to `CCCC[C@H](NC(=O)[C@H](Cc1cnc[nH]1)NC(=O)[C@H](C)NC(=O)[C@H](CCCC)NC(=O)[C@@H](NC(=O)[C@H](CCCCN)NC(=O)[C@@H]1CCCN1C(=O)[C@H](CC(C)C)NC(=O)[C@@H](NC(=O)[C@H](CCCCN)NC(=O)[C@H](CCCCN)NC(=O)[C@H](CC(C)C)NC(=O)[C@@H](NC(=O)[C@H](CO)NC(=O)[C@H](CC(C)C)NC(=O)[C@H](Cc1ccccc1)NC(=O)CN)[C@@H](C)CC)C(C)C)C(C)C)C(=O)N[C@@H](CCCCN)C(N)=O` (H-GFLSILKKVLPKV[Nle]AH[Nle]K-NH2), the HC50 at 1 h worked out at 50 µM. Same read-out and setting: as for `CCCC[C@H](NC(=O)[C@H](Cc1cnc[nH]1)NC(=O)[C@H](C)NC(=O)[C@H](CCCC)NC(=O)[C@@H](NC(=O)[C@H](CCCCN)NC(=O)[C@@H]1CCCN1C(=O)[C@]1(C)CCC/C=C\CCCCCC[C@@](C)(NC(=O)[C@H](Cc2ccccc2)NC(=O)CN)C(=O)N[C@@H](CO)C(=O)N[C@@H]([C@@H](C)CC)C(=O)N[C@@H](CC(C)C)C(=O)N[C@@H](CCCCN)C(=O)N[C@@H](CCCCN)C(=O)N[C@@H](C(C)C)C(=O)N1)C(C)C)C(=O)N[C@@H](CCCCN)C(N)=O` (H-GF[R8]SILKKV[S5]PKV[Nle]AH[Nle]K-NH2; staple (Z) 3-10), the figure is 11 µM. Same read-out and setting: the result for `CCCC[C@H](NC(=O)[C@H](Cc1cnc[nH]1)NC(=O)[C@H](C)NC(=O)[C@H](CCCC)NC(=O)[C@@H](NC(=O)[C@H](CCCCN)NC(=O)[C@@H]1CCCN1C(=O)[C@]1(C)CCC/C=C/CCCCCC[C@@](C)(NC(=O)[C@H](Cc2ccccc2)NC(=O)CN)C(=O)N[C@@H](CO)C(=O)N[C@@H]([C@@H](C)CC)C(=O)N[C@@H](CC(C)C)C(=O)N[C@@H](CCCCN)C(=O)N[C@@H](CCCCN)C(=O)N[C@@H](C(C)C)C(=O)N1)C(C)C)C(=O)N[C@@H](CCCCN)C(N)=O` (H-GF[R8]SILKKV[S5]PKV[Nle]AH[Nle]K-NH2; staple (E) 3-10) reads 20 µM; that for `CCCC[C@H](NC(=O)[C@H](Cc1cnc[nH]1)NC(=O)[C@H](C)NC(=O)[C@H](CCCC)NC(=O)[C@@H](NC(=O)[C@H](CCCCN)NC(=O)[C@@H]1CCCN1C(=O)[C@H](CC(C)C)NC(=O)[C@@]1(C)CCC/C=C\CCC[C@](C)(NC(=O)[C@H](CO)NC(=O)[C@H](CC(C)C)NC(=O)[C@H](Cc2ccccc2)NC(=O)CN)C(=O)N[C@@H](CC(C)C)C(=O)N[C@@H](CCCCN)C(=O)N[C@@H](CCCCN)C(=O)N1)C(C)C)C(=O)N[C@@H](CCCCN)C(N)=O` (H-GFLS[S5]LKK[R5]LPKV[Nle]AH[Nle]K-NH2; staple (Z) 5-9), 14.7 µM. The molecule `CC[C@H](C)[C@H](NC(=O)[C@H](CCCCN)NC(=O)[C@H](CCCCN)NC(=O)[C@H](Cc1c[nH]c2ccccc12)NC(=O)[C@H](CC(N)=O)NC(=O)[C@@H](N)C(C)C)C(=O)N[C@@H](CC(C)C)C(=O)NCC(=O)N[C@@H](CCCCN)C(=O)N[C@@]1(C)CCC/C=C\CCC[C@@](C)(C(=O)N[C@@H](CCCCN)C(N)=O)NC(=O)[C@H](C(C)C)NC(=O)[C@H](CCCCN)NC(=O)[C@H]([C@@H](C)CC)NC1=O` (H-VNWKKILGK[S5]IKV[S5]K-NH2; staple (Z) 10-14) displayed an HC50 at 1 h of 69 µM. Same read-out and setting: as for `CC[C@H](C)[C@@H]1NC(=O)[C@H](CCCCN)NC(=O)[C@H](CCCCN)NC(=O)[C@](C)(NC(=O)[C@H](CC(N)=O)NC(=O)[C@@H](N)C(C)C)CCCCCC/C=C\CCC[C@@](C)(C(=O)N[C@H](C(=O)N[C@@H](CCCCN)C(=O)N[C@H](C(=O)N[C@H](C(=O)N[C@@H](CCCCN)C(N)=O)C(C)C)C(C)C)[C@@H](C)CC)NC(=O)[C@H](CCCCN)NC(=O)CNC(=O)[C@H](CC(C)C)NC1=O` (H-VN[R8]KKILGK[S5]IKVVK-NH2; staple (Z) 3-10), the figure is 100 µM; as for `CC[C@H](C)[C@H](NC(=O)CN)C(=O)N[C@@H](CCSC)C(=O)N[C@@H](CO[C@H]1O[C@@H](C)[C@@H](O)[C@@H](O)[C@@H]1O)C(=O)N[C@@H](CO)C(=O)N[C@@H](CC(C)C)C(=O)N[C@@H](CCSC)C(=O)N[C@@H](CCCCN)C(=O)N[C@@H](CCCCN)C(=O)N[C@@H](CC(C)C)C(=O)N[C@@]1(C)CCC/C=C\CCC[C@@](C)(C(=O)N[C@@H](CCCCN)C(N)=O)NC(=O)[C@H]([C@@H](C)CC)NC(=O)[C@H](Cc2cnc[nH]2)NC(=O)[C@H](C)NC1=O` (H-GIMS(X2)SLMKKL[S5]AHI[S5]K-NH2; staple (Z) 11-15), above 400 µM; as for `CC[C@H](C)[C@@H]1NC(=O)[C@H](CCCCN)NC(=O)[C@H](CCCCN)NC(=O)[C@](C)(NC(=O)[C@H](CC(N)=O)NC(=O)[C@@H](N)C(C)C)CCCCCC/C=C/CCC[C@@](C)(C(=O)N[C@H](C(=O)N[C@@H](CCCCN)C(=O)N[C@H](C(=O)N[C@H](C(=O)N[C@@H](CCCCN)C(N)=O)C(C)C)C(C)C)[C@@H](C)CC)NC(=O)[C@H](CCCCN)NC(=O)CNC(=O)[C@H](CC(C)C)NC1=O` (H-VN[R8]KKILGK[S5]IKVVK-NH2; staple (E) 3-10), above 100 µM. Consider H-GIMSSLMKKLAAHIAK-NH2, for which the 50% haemolytic concentration (HC50) at 1 h was above 400 µM. For the molecule `CC[C@H](C)[C@H](NC(=O)[C@]1(C)CCC/C=C\CCC[C@](C)(NC(=O)[C@H](CCCCN)NC(=O)[C@H](CCCCN)NC(=O)[C@H](Cc2c[nH]c3ccccc23)NC(=O)[C@H](CC(N)=O)NC(=O)[C@@H](N)C(C)C)C(=O)N[C@@H](CC(C)C)C(=O)NCC(=O)N[C@@H](CCCCN)C(=O)N1)C(=O)N[C@@H](CCCCN)C(=O)N[C@H](C(=O)N[C@H](C(=O)N[C@@H](CCCCN)C(N)=O)C(C)C)C(C)C` (H-VNWKK[S5]LGK[S5]IKVVK-NH2; staple (Z) 6-10), the HC50 at 1 h stood at 31.3 µM.

Still in this series, the particulars now being: read-out: Activity.
As for H-GIGKFLHSAKKFGKAFVGEIMNS-NH2, the hemolysis at 1 h is below 2%.

Take `CC[C@H](C)[C@H](NC(=O)CN)C(=O)NCC(=O)N[C@@H](CCCCN)C(=O)N[C@@H](Cc1ccccc1)C(=O)N[C@@H](CC(C)C)C(=O)N[C@@H](Cc1cnc[nH]1)C(=O)N[C@@H](CO)C(=O)N[C@@H](C)C(=O)N[C@@H](CCCCN)C(=O)N[C@@H](CCCCN)C(=O)N[C@@H](Cc1ccccc1)C(=O)NCC(=O)N[C@@H](CCCCN)C(=O)N[C@@H](C)C(=O)N[C@@H](Cc1ccccc1)C(=O)N[C@H](C(=O)NCC(=O)N[C@@]1(C)CCC/C=C\CCC[C@@](C)(C(N)=O)NC(=O)[C@H](CC(N)=O)NC(=O)[C@H](CCSC)NC(=O)[C@H]([C@@H](C)CC)NC1=O)C(C)C` (H-GIGKFLHSAKKFGKAFVG[S5]IMN[S5]-NH2; staple (Z) 19-23): the hemolysis at 1 h came to 100%. As to `CC[C@H](C)[C@H](NC(=O)CN)C(=O)NCC(=O)N[C@@H](CCCCN)C(=O)N[C@@H](Cc1ccccc1)C(=O)N[C@@H](CC(C)C)C(=O)N[C@@H](Cc1cnc[nH]1)C(=O)N[C@@H](CO)C(=O)N[C@@H](C)C(=O)N[C@@H](CCCCN)C(=O)N[C@@H](CCCCN)C(=O)N[C@@H](Cc1ccccc1)C(=O)NCC(=O)N[C@@H](CCCCN)C(=O)N[C@@H](C)C(=O)N[C@@H](Cc1ccccc1)C(=O)N[C@@]1(C)CCC/C=C\CCC[C@@](C)(C(=O)N[C@@H](CC(N)=O)C(=O)N[C@@H](CO)C(N)=O)NC(=O)[C@H]([C@@H](C)CC)NC(=O)[C@H](CCC(=O)O)NC(=O)CNC1=O` (H-GIGKFLHSAKKFGKAF[S5]GEI[S5]NS-NH2; staple (Z) 17-21), the hemolysis at 1 h was below 10%.
